Measured values reported in PubChem BioAssay (NCI).
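A five-concentration, 48-hour dose response in 96-well plates underlies each endpoint, interpolated linearly between surrounding concentrations. TGI: total growth inhibition.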

Tests used:
Experiment in all cases: inhibition of tumour cell growth, NCI panel, 48 h
786-0 renal = system: 786-0 renal
A549 NSCLC = system: A549 NSCLC
ACHN renal = system: ACHN renal
CAKI-1 renal = system: CAKI-1 renal
CCRF-CEM leukemia = system: CCRF-CEM leukemia
COLO 205 colon = system: COLO 205 colon
DLD-1 colon = system: DLD-1 colon
DMS 114 small cell lung = system: DMS 114 small cell lung
EKVX NSCLC = system: EKVX NSCLC
HCC-2998 colon = system: HCC-2998 colon
HCT-15 colon = system: HCT-15 colon
HL-60(TB) leukemia = system: HL-60(TB) leukemia
HOP-92 NSCLC = system: HOP-92 NSCLC
HT29 colon = system: HT29 colon
IGROV1 ovarian = system: IGROV1 ovarian
K-562 leukemia = system: K-562 leukemia
KM12 colon = system: KM12 colon
KM20L2 colon = system: KM20L2 colon
LXFL 529 NSCLC = system: LXFL 529 NSCLC
M14 melanoma = system: M14 melanoma
M19-MEL melanoma = system: M19-MEL melanoma
MALME-3M melanoma = system: MALME-3M melanoma
MOLT-4 leukemia = system: MOLT-4 leukemia
NCI-H23 lung = system: NCI-H23 lung
NCI-H522 lung = system: NCI-H522 lung
OVCAR-3 ovarian = system: OVCAR-3 ovarian
OVCAR-4 ovarian = system: OVCAR-4 ovarian
OVCAR-5 ovarian = system: OVCAR-5 ovarian
OVCAR-8 ovarian = system: OVCAR-8 ovarian
RXF 393 renal = system: RXF 393 renal
RXF-631 renal = system: RXF-631 renal
SF-268 CNS = system: SF-268 CNS
SF-295 CNS = system: SF-295 CNS
SF-539 CNS = system: SF-539 CNS
SK-MEL-2 melanoma = system: SK-MEL-2 melanoma
SK-MEL-28 melanoma = system: SK-MEL-28 melanoma
SK-MEL-5 melanoma = system: SK-MEL-5 melanoma
SK-OV-3 ovarian = system: SK-OV-3 ovarian
SN12C renal = system: SN12C renal
SNB-19 CNS = system: SNB-19 CNS
SNB-78 CNS = system: SNB-78 CNS
SR leukemia = system: SR leukemia
SW-620 colon = system: SW-620 colon
TK-10 renal = system: TK-10 renal
U251 CNS = system: U251 CNS
UACC-62 melanoma = system: UACC-62 melanoma
UO-31 renal = system: UO-31 renal
XF 498 CNS = system: XF 498 CNS
A498 renal = system: A498 renal
DMS 273 small cell lung = system: DMS 273 small cell lung
HCT-116 colon = system: HCT-116 colon
HOP-18 NSCLC = system: HOP-18 NSCLC
HOP-62 NSCLC = system: HOP-62 NSCLC
LOX IMVI melanoma = system: LOX IMVI melanoma
NCI-H226 lung = system: NCI-H226 lung
NCI-H460 lung = system: NCI-H460 lung
RPMI-8226 leukemia = system: RPMI-8226 leukemia
SNB-75 CNS = system: SNB-75 CNS
UACC-257 melanoma = system: UACC-257 melanoma

Measured: TGI

Nc1ccc(C2=N/C(=C\c3cccc(N)c3)C(=O)O2)cc1
not listed: A498 renal | DMS 273 small cell lung | HCT-116 colon | HOP-18 NSCLC | HOP-62 NSCLC | LOX IMVI melanoma | NCI-H226 lung | NCI-H460 lung | RPMI-8226 leukemia | SNB-75 CNS | UACC-257 melanoma
> 100 µM: all other assays above

C=CCC1(C)CCCCC1(O)CS(=O)c1ccccc1 (configuration not stated)
not listed: K-562 leukemia | LXFL 529 NSCLC | NCI-H23 lung | SK-MEL-2 melanoma | XF 498 CNS
> 100 µM: all other assays above
